From ChEMBL document CHEMBL4842377, “Synthesis and biological evaluation of selective histone deacetylase 6 inhibitors as multifunctional agents against Alzheimer's disease” (Eur J Med Chem, 2021)
Activity calls are given as the source filed them. The calls are words filed in the database; no cut-off is given here.

What was measured:
[1] = biological target: T1, Protein deacetylase HDAC6 (Homo sapiens, UniProt Q9UBN7); experiment: Inhibition of human HDAC6 using fluorogenic substrate incubated for 1 hrs by fluorescence plate reader assay
T1 sequence (Q9UBN7 whole entry): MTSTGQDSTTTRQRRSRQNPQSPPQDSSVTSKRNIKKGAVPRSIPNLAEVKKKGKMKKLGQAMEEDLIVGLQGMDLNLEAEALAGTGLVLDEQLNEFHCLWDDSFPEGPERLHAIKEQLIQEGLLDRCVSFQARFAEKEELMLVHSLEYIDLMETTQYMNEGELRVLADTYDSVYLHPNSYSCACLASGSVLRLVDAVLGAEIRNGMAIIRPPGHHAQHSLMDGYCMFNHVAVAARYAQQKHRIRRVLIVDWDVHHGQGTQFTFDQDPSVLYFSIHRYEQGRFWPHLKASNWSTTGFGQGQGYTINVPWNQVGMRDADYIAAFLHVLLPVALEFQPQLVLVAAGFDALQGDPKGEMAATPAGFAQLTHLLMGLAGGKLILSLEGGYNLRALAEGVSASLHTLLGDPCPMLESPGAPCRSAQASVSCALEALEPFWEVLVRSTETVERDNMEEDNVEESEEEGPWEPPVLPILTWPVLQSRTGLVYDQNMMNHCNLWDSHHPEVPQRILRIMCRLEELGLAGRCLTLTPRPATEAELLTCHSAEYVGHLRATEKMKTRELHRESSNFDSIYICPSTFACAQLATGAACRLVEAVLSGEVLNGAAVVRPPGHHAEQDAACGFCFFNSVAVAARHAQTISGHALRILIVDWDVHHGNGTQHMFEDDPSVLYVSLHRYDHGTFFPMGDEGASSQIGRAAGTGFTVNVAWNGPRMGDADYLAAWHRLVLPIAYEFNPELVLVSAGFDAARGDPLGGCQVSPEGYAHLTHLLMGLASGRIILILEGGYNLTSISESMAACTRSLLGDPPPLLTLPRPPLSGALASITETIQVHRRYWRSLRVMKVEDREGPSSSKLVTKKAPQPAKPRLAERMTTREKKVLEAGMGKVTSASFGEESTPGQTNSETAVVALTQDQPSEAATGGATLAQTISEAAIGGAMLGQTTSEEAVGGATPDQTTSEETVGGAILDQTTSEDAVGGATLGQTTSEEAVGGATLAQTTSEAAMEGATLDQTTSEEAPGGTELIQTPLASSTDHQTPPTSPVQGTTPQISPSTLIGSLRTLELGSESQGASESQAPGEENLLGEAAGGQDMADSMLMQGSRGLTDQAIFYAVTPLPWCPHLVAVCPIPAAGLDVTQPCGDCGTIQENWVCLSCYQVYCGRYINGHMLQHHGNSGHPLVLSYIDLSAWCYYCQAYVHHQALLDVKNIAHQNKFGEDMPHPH

[2] = Inhibition of Cu2+ induced amyloid beta (1 to 42 residues) (unknown origin) aggregation by measuring reduction in fluorescence intensity at 20 uM after 24 hrs by thioflavin-T fluorescence method relative to control
[3] = Disaggregation of Cu2+ induced amyloid beta (1 to 42 residues) (unknown origin) aggregation measuring reduction in fluorescence intensity at 20 uM after 24 hrs by thioflavin-T fluorescence method relative to control; parameters: scale not given: the % may be the effect or the level left
SH-SY5Y [4] = experiment: Neuroprotective activity against Cu2+/amyloid beta (1 to 42)-induced toxicity in human SH-SY5Y cells assessed as increase in cell viability at 3 uM after 24 hrs by MTT assay (reference value: 47.2%); type: functional
Histone deacetylase 4 = Histone deacetylase 4 (Homo sapiens, UniProt P56524); experiment: Inhibition of human HDAC4 using fluorogenic substrate incubated for 1 hrs by fluorescence plate reader assay
[5] = biological target: T2, Polyamine deacetylase HDAC10 (Homo sapiens, UniProt Q969S8); experiment: Inhibition of human HDAC10 using fluorogenic substrate incubated for 1 hrs by fluorescence plate reader assay
T2 sequence (Q969S8 whole entry): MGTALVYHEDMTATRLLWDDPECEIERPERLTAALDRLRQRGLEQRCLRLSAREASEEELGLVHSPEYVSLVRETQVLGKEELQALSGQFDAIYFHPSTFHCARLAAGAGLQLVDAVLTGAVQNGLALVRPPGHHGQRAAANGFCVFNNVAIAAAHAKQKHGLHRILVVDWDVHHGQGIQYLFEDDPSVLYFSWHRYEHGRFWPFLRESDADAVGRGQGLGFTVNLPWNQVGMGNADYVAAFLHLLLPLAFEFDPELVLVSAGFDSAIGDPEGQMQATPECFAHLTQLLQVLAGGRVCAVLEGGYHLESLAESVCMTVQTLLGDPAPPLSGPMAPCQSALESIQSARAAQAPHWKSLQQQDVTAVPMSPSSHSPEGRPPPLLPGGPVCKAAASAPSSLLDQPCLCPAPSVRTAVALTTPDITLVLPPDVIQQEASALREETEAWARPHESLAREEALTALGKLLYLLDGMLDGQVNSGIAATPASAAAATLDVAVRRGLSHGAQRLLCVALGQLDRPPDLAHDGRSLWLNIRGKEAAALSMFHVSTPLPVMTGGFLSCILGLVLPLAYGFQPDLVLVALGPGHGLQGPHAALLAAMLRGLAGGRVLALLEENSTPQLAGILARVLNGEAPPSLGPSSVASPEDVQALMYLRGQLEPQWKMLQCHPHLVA

Histone deacetylase 8 = biological target: T3, Histone deacetylase 8 (Homo sapiens, UniProt Q9BY41); experiment: Inhibition of human HDAC8 using fluorogenic substrate incubated for 1 hrs by fluorescence plate reader assay
T3 sequence (Q9BY41 whole entry): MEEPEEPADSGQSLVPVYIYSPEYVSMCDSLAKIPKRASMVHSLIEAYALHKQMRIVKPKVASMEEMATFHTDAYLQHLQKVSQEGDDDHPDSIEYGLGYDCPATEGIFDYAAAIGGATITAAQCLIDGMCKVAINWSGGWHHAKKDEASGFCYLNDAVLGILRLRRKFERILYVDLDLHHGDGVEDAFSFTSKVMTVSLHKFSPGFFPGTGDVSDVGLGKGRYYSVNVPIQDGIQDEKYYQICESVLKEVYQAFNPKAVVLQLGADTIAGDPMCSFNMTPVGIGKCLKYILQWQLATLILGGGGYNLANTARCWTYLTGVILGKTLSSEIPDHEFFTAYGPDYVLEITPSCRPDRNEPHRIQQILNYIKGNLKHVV

Histone deacetylase 1 = Histone deacetylase 1 (Homo sapiens, UniProt Q13547); experiment: Inhibition of human HDAC1 using fluorogenic substrate incubated for 1 hrs by fluorescence plate reader assay
Histone deacetylase 2 = Histone deacetylase 2 (Homo sapiens, UniProt Q92769); experiment: Inhibition of human HDAC2 using fluorogenic substrate incubated for 1 hrs by fluorescence plate reader assay
Histone deacetylase 11 = biological target: T4, Histone deacetylase 11 (Homo sapiens, UniProt Q96DB2); experiment: Inhibition of human HDAC11 using fluorogenic substrate incubated for 1 hrs by fluorescence plate reader assay
T4 sequence (Q96DB2 whole entry): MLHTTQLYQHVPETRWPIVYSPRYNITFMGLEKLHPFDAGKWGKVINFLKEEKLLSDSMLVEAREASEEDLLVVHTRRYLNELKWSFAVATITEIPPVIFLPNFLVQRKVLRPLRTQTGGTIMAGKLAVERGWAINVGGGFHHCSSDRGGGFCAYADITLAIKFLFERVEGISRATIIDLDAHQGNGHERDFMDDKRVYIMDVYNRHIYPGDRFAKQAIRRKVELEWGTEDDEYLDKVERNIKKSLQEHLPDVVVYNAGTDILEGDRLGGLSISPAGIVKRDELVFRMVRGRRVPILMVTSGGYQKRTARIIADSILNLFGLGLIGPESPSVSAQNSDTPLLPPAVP

SH-SY5Y [6] = experiment: Cytotoxicity against human SH-SY5Y cells assessed as cell viability incubated for 24 hrs by MTT assay; type: cell-based
SH-SY5Y [7] = experiment: Neuroprotective activity against amyloid beta (1 to 42)-induced cytotoxicity in human SH-SY5Y cells assessed as increase in cell viability at 3 uM after 24 hrs by MTT assay (reference value: 60.4%); type: functional
SH-SY5Y [8] = experiment: Induction of neurogenesis in human SH-SY5Y cells assessed as induction of GAP-43 mRNA expression at 10 uM measured after 24 hrs by RT-PCR analysis relative to control; type: functional
SH-SY5Y [9] = experiment: Induction of neurogenesis in human SH-SY5Y cells assessed as induction of N-myc mRNA expression at 10 uM measured after 24 hrs by RT-PCR analysis relative to control; type: functional
SH-SY5Y [10] = experiment: Induction of neurogenesis in human SH-SY5Y cells assessed as induction of MAP2 mRNA expression at 10 uM measured after 24 hrs by RT-PCR analysis relative to control; type: functional
SH-SY5Y [11] = experiment: Induction of neurogenesis in human SH-SY5Y cells assessed as fold induction of GAP-43 mRNA expression at 10 uM measured after 24 hrs by RT-PCR analysis relative to retinoic acid; type: functional
SH-SY5Y [12] = experiment: Induction of neurogenesis in human SH-SY5Y cells assessed as fold induction of N-myc mRNA expression at 10 uM measured after 24 hrs by RT-PCR analysis relative to retinoic acid; type: functional
SH-SY5Y [13] = experiment: Induction of neurogenesis in human SH-SY5Y cells assessed as fold induction of MAP2 mRNA expression at 10 uM measured after 24 hrs by RT-PCR analysis relative to retinoic acid; type: functional
Homo sapiens [14] = organism: Homo sapiens; experiment: Selectivity ratio of IC50 for human HDAC6 to IC50 for human HDAC1
Homo sapiens [15] = organism: Homo sapiens; experiment: Selectivity ratio of IC50 for human HDAC6 to IC50 for human HDAC2
Homo sapiens [16] = organism: Homo sapiens; experiment: Selectivity ratio of IC50 for human HDAC6 to IC50 for human HDAC8
Homo sapiens [17] = organism: Homo sapiens; experiment: Selectivity ratio of IC50 for human HDAC6 to IC50 for human HDAC4
Homo sapiens [18] = organism: Homo sapiens; experiment: Selectivity ratio of IC50 for human HDAC6 to IC50 for human HDAC10
Homo sapiens [19] = organism: Homo sapiens; experiment: Selectivity ratio of IC50 for human HDAC6 to IC50 for human HDAC11
[20] = biological target: T5, Protein deacetylase HDAC6 (Homo sapiens) (UniProt Q9UBN7); experiment: Inhibition of HDAC6 in human SH-SY5Y cells assessed as increase in acetylated alpha tubulin level measured after 24 hrs by Western blot analysis; type: cell-based; settings: dose 0.25-1 µM
T5 sequence (whole entry): T1 sequence (Q9UBN7 whole entry)

[21] = biological target: T5, Protein deacetylase HDAC6 (Homo sapiens); experiment: Inhibition of HDAC6 in human SH-SY5Y cells assessed as increase in acetylated histone level measured after 24 hrs by Western blot analysis; type: cell-based
[22] = biological target: T5, Protein deacetylase HDAC6 (Homo sapiens); experiment: Inhibition of HDAC6 in human SH-SY5Y cells assessed as reduction in tau phosphorylation at Ser396 residue by Western blot analysis; type: cell-based
[23] = biological target: T5, Protein deacetylase HDAC6 (Homo sapiens); experiment: Inhibition of HDAC6 in human SH-SY5Y cells assessed as reduction in tau phosphorylation at Ser396 residue at 20 uM by Western blot analysis; type: cell-based
SH-SY5Y [24] = experiment: Induction of neurite outgrowth in human SH-SY5Y cells at 10 uM incubated for 3 days by inverted microscopy; type: functional, cell-based; settings: time 3.0 day

Chain of Histone deacetylase 4 (P56524 whole entry): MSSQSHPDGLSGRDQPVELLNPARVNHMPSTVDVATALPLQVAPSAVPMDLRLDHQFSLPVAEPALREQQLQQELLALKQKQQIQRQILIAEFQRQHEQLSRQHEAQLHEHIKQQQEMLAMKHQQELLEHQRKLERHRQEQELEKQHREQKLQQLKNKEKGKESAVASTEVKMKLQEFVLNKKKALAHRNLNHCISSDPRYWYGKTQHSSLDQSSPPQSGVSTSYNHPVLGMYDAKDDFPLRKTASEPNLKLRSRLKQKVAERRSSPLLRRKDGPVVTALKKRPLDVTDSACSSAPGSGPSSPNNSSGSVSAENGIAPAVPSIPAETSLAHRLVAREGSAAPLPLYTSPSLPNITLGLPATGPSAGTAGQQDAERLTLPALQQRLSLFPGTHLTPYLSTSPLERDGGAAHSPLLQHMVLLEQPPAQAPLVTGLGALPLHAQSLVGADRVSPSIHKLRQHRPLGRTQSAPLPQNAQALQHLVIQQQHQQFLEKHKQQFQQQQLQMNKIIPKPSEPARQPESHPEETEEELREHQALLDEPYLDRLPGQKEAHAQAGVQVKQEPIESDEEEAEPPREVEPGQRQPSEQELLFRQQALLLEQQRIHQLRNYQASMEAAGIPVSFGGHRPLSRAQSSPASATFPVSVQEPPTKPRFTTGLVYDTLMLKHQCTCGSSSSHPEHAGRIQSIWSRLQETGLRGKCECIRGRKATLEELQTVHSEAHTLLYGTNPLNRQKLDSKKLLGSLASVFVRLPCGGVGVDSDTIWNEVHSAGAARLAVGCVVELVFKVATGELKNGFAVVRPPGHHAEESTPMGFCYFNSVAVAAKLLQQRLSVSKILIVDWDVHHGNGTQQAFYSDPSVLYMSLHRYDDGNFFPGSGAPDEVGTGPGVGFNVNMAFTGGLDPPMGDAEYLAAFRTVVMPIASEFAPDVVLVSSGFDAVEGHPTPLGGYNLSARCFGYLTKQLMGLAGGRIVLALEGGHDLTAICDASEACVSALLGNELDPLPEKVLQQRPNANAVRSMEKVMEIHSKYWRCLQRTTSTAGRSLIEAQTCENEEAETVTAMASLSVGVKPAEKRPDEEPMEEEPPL
Chain of Histone deacetylase 2 (Q92769 whole entry): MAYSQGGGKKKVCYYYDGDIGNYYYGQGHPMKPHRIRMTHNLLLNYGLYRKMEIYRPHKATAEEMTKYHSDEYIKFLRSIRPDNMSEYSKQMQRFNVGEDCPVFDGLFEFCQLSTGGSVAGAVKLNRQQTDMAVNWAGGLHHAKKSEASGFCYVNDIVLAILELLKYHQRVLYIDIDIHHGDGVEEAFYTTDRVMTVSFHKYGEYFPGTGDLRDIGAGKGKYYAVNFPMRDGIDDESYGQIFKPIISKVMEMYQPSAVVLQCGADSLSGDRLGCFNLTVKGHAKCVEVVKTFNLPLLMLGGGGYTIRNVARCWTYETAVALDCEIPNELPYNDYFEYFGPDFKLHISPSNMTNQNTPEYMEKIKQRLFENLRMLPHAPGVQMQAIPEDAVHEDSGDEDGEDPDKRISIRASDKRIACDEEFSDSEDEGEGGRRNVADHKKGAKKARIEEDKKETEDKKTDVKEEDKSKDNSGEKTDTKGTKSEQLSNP
Chain of Histone deacetylase 1 (Q13547 whole entry): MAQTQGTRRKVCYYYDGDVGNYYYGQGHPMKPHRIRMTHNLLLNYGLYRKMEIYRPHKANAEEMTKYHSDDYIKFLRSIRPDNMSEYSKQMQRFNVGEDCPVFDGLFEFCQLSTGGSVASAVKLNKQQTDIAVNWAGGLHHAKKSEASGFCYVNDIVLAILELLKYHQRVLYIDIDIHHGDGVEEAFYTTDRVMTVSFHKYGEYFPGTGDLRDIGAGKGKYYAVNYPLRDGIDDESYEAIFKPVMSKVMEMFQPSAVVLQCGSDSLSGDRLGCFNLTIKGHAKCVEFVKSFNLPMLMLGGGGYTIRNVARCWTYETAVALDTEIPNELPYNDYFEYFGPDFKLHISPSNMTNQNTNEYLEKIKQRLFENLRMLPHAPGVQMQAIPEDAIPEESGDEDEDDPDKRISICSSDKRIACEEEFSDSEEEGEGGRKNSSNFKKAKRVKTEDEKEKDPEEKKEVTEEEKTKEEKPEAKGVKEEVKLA

CNC(=O)c1ccc(CN(C)C23CC4C[C@@](C)(C2)C[C@](C)(C4)C3)nc1
IC50 [1]: > 1000 nM

CNC(=O)c1ccc(CN2c3ccccc3Sc3ccccc32)nc1
IC50 [1]: > 1000 nM

Oc1c(I)cc(Cl)c2cccnc12 [CLIOQUINOL]
inhibition [2]: 38.9% | Activity [3]: Active | Activity (SH-SY5Y [4]): 86.2%

Cl.O=C(NO)c1ccc(CN2c3ccccc3Sc3ccccc32)nc1
IC50 [1]: 2.54 nM | IC50 (Histone deacetylase 4): 5630 nM | IC50 [5]: 8630 nM | IC50 (Histone deacetylase 8): 6120 nM | IC50 (Histone deacetylase 1): 743 nM | IC50 (Histone deacetylase 2): 1960 nM | IC50 (Histone deacetylase 11): 4300 nM | IC50 (SH-SY5Y [6]): 115000 nM | Activity (SH-SY5Y [7]): 76.3% | Activity (SH-SY5Y [4]): 82% | Activity (SH-SY5Y [8]): 5.71 | Activity (SH-SY5Y [9]): 6.28 | Activity (SH-SY5Y [10]): 4.79 | fold change (FC) (SH-SY5Y [11]): 2 | fold change (FC) (SH-SY5Y [12]): 2 | fold change (FC) (SH-SY5Y [13]): 2

C[C@]12CC3CC(NCc4ccc(C(=O)NO)cn4)(C1)C[C@@](C)(C3)C2
IC50 [1]: 537 nM

O=C(/C=C/c1ccc(CN2c3ccccc3Sc3ccccc32)cc1)NO
IC50 [1]: 463 nM

Cc1ccc2c(c1)c1c(n2Cc2ccc(C(=O)NO)cn2)CCN(C)C1
IC50 [1]: 83 nM

CC1=C(/C=C/C(C)=C/C=C/C(C)=C/C(=O)O)C(C)(C)CCC1 [TRETINOIN]
Activity (SH-SY5Y [8]): 2.07 | Activity (SH-SY5Y [9]): 2.3 | Activity (SH-SY5Y [10]): 2.13

O=C(CCc1ccc(CN2c3ccccc3Sc3ccccc32)cc1)NO
IC50 [1]: 343 nM

O=C(NO)c1ccc(CN2c3ccccc3Sc3ccccc32)nc1 [listing 1 of 2 here]
IC50 [1]: 11 nM

CN(Cc1ccc(C(=O)NO)cn1)C12CC3C[C@@](C)(C1)C[C@](C)(C3)C2
IC50 [1]: 835 nM

COc1ccc2c(c1)c1c(n2Cc2ccc(C(=O)NO)cn2)CCN(C)C1
IC50 [1]: 53 nM

O=C(NO)c1ccc(CN2c3ccccc3Sc3ccccc32)nc1 [listing 2 of 2 here]
Selectivity ratio (Homo sapiens [14]): 292 | Selectivity ratio (Homo sapiens [15]): 772 | Selectivity ratio (Homo sapiens [16]): 2410 | Selectivity ratio (Homo sapiens [17]): 2220 | Selectivity ratio (Homo sapiens [18]): 3400 | Selectivity ratio (Homo sapiens [19]): 1690 | inhibition [20]: Dose-Dependent Effect | inhibition [21]: Active | inhibition [22]: Dose-Dependent Effect | inhibition [23]: 50% | Activity [3]: 40% | Activity (SH-SY5Y [24]): Active

CCNC(=O)c1ccc(CN2c3ccccc3Sc3ccccc32)nc1
IC50 [1]: > 1000 nM

CCNC(=O)Cn1cc(CN2c3ccccc3Sc3ccccc32)cn1
IC50 [1]: > 1000 nM

CNC(=O)Cn1cc(CN2c3ccccc3Sc3ccccc32)cn1
IC50 [1]: > 1000 nM

O=C(Cn1cc(CN2c3ccccc3Sc3ccccc32)cn1)NO
IC50 [1]: > 1000 nM

O=C(NO)c1coc(CN2c3ccccc3Sc3ccccc32)n1
IC50 [1]: 884 nM

COc1cc(/C=C/C(=O)CC(=O)/C=C/c2ccc(O)c(OC)c2)ccc1O [CURCUMIN]
Activity (SH-SY5Y [7]): 74.6%
